Assay results reported in patent US6699676B1, “Uses of ouabain and ouabain-like molecules in apoptosis related pathologies” (Corporation du Centre de Recherche du Centre, Hospitalier …, priority 1999, dated 2004).

Legend:
Jurkat cells = experiment: Intracellular Na+ and K+ content in Jurkat cells; format: cell-based, human; conditions: for Intracellular cations K^+i / Intracellular cations Na^+i: ouabain-treated Jurkat cells, 1 mM, 6 hours
Experimental: FIG. 1. Kinetics of modulation of intracellular Na^+ (1, 2) and K^+ (3, 4) content by ouabain in VSMC-E1A (1, 3) and Jurkat cells (2, 4). Cells were preincubated for 24 hours in the presence of 10% calf serum in control medium consisting of 91 mM NaCl, 5 mM KCl, 0.9 mM NaH2PO4, 44 mM NaHCO3, 1.8 mM CaCl2, 0.8 mM MgCl2, 33 mM HEPES and 5 mM D-glucose (pH 7.4) with 2 μCi/ml of ^22Na or 0.5 μCi/ml ^86Rb, and 1 mM ouabain was added at the time interval indicated by the arrow. At specific time-points, intracellular Na^+ and K content + was measured as described in Experimental Procedures. Mean values±S.E. obtained in experiments performed in quadruplicate (VSMC-E1A) or triplicate (Jurkat cells) are given.
To estimate chromatin cleavage, cells were incubated for 2 hours in the presence of 10% calf serum in the control solution (DMEM, [Na^+]=137 mM; [K^+]=5 mM—line 1) or under equimolar substitution of NaCl with KCl ([Na^+]=14 mM; [K^+]=128 mM—line 2) with or without 1 mM ouabain and then for an additional 7 hours at the same media with or without 100 ng/ml Fas ligand (Fas-L). Intracellular Na^+ and K^+ content was measured as steady-state distribution of isotopes after 24 hours preincubation of cells in control Na^+-enriched solution containing 0.5 μCi/ml ^86Rb or 2 μCi/ml ^22Na, and an additional 6 hours incubation in Na^+—(line 1) or K^+—(line 2) enriched medium containing 10% calf serum, isotopes with the same specific activity with or without 1 mM ouabain. For more details see Experimental Procedures. Mean values±S.E. obtained in experiments performed in triplicate are given. ★, #p<0.01 and 0.001 compared to ouabain-untreated cells.
Intracellular Na^+ and K^+ content. The intracellular content of exchangeable Na^+ and K^+ was measured as steady-state distribution of extra- and intracellular ^22Na and ^86Rb, as described previously in detail (22). Briefly, to establish the steady-state distribution of isotopes, VSMC growing in 12× (^22Na) or 24× (^86Rb) well plates or ˜10^6 Jurkat cells in suspension were preincubated for 24 hours in DMEM containing 10% calf serum and 0.5 μCi/ml ^86RbCl or 2 μCi/ml ^22NaCl and then treated in media with compositions shown in FIG. 1 and Tables 3 and 4 and with the same specific radioactivity. At the end of incubation, the VSMC were transferred on ice, washed 4 times with 2 ml of ice-cold medium W, containing 100 mM MgCl2 and 10 mM HEPES-tris buffer (pH 7.4), and lysed with SDS/EDTA mixture. One ml of Jurkat cell suspension was applied on a Whatman type C filter with the cells being washed with 3×5 ml aliquots of ice-cold medium W under negative pressure of 20-30 mm Hg. Radioactivity of the incubation medium and cell lysate was measured with a liquid scintillation analyzer and intracellular cation content was determined as A/am, where A was the radioactivity of the samples (cpm), a was the specific radioactivity of Na^+ and K^+(^86Rb) in the medium (cpm/nmol), and m was the protein content determined by Lowry methods.

VSMC-E1A = experiment: Cell morphology by phase contrast microscopy in VSMC-E1A; format: cell-based, rat; conditions: 1 mM ouabain pretreatment, 6 hours serum-deprived medium
Experimental: FIG. 3. Effect of ouabain on morphology (A) and DNA laddering (B and C) in VSMC-E1A. In experiments with ouabain, cells were pretreated with 1 mM of this compound 1 hour before 6 hours exposure to serum-free medium. A. Cell morphology was evaluated by phase contrast microscopy without preliminary fixation. a, c) DMEM containing 10% calf serum; b, d) serum-free DMEM; a, b) without ouabain; c, d) in the presence of ouabain. Micro graphs were prepared using a Nikon phase contrast microscope at ×100 magnification. Apoptotic cells are shown by arrows. B. DNA laddering (left part of the figure) was analyzed with a PhosphorImager, and relative content of low molecular weight DNA fragments (1,500−125 bp−right part of the figure) in cells incubated with 10% calf serum (CS) in the absence of ouabain was taken as 100%. Means±S.E. obtained in 2 experiments performed in triplicate are shown.

VSMC [1] = experiment: DNA synthesis, serum-induced [3H]-thymidine incorporation in VSMC; format: cell-based, rat
Experimental: As with ouabain, VSMC apoptosis was blocked by inhibition of the Na^+,K^+ pump in K^+-depleted medium (Table 1). […] DNA synthesis in VSMC, measured as serum-induced [^3H]-thymidine incorporation, was also insensitive to 5 hours preincubation with ouabain and was decreased by ˜60% only after 48 hours of the Na^+, K^+ pump inhibition (data not presented).

VSMC [2] = experiment: Protein synthesis in VSMC; conditions: 8 hours incubation with ouabain, data not shown

C[C@@H]1O[C@@H](O[C@H]2C[C@@H](O)[C@]3(CO)[C@H]4[C@H](O)C[C@]5(C)[C@@H](C6=CC(=O)OC6)CC[C@]5(O)[C@@H]4CC[C@]3(O)C2)[C@H](O)[C@H](O)[C@H]1O [Ouabain, 1β,3β,5,11α,14,19-hexahydroxycard 20 [22]-enolide 3-[6-deoxy-α-L-mannopyrano-sidel]]
increase of the content of intracellular Na^+ (Jurkat cells; ouabain treated Jurkat lymphocytes, 1 mM (FIG. 1, curve 2)): 10 fold
Intracellular cations K^+i (Jurkat cells; medium [Na+]o=14, [K+]o=128 mM): 498 nmol/mg protein
Intracellular cations Na^+i (Jurkat cells; medium [Na+]o=14, [K+]o=128 mM): 204 nmol/mg protein
Intracellular cations K^+i (Jurkat cells; medium [Na+]o=137, [K+]o=5 mM): 107 nmol/mg protein
Intracellular cations Na^+i (Jurkat cells; medium [Na+]o=137, [K+]o=5 mM): 1137 nmol/mg protein
number of apoptotic cells (VSMC-E1A): sharply decreased the number of apoptotic cells
DNA synthesis, serum-induced [^3H]-thymidine incorporation (VSMC [1]; 5 hours preincubation with ouabain): insensitive
decrease of DNA synthesis, serum-induced [^3H]-thymidine incorporation (VSMC [1]; after 48 hours of Na+,K+ pump inhibition with ouabain): ~60%
protein synthesis (VSMC [2]): did not observe any significant effect
